Consider 3 molecules from article PMC11876601 (Molecular Systems Biology, 2025).

One assay concerns 13 PDAC cell lines. Description: Phenotypic drug combination viability screen (ATPlite, 72 h), cell line panel. The settings on record: single agent, 72 h. It counts as cell-based, human. As for the experimental part:
(§1) Cell viability was assessed by measuring ATP levels to indicate metabolic activity.
(§2) Afterward, small amounts were transferred to 384-well intermediate plates (Greiner Bio-One GmbH, Germany). […] For drug combination screening, 1000 to 5000 cells were seeded into 384-well plates (CulturPlate™, Perkin Elmer, MA, USA) using a Multidrop™ Combi Reagent Dispenser (Thermo Scientific, MA, USA) in 50 µl medium per well 24 h prior to drug treatment (seeding densities see Appendix Table S1). […] The final DMSO concentration in each well was 0.2%. […] Eight wells per plate without library drug served as negative controls, and sixteen wells per plate containing 5 µM Staurosporine served as positive controls. Control plates not containing any drug were used to correct for incubation effects, and data quality was assessed by calculation of Z-prime of positive and negative controls according to1 Z-prime=1−3SDpos+3SDneg/[…] where SD is the standard deviation. […] Dose–response curves from the experimental and hypothetical data were compared, and shifts in AUC were used to describe combination effects (AUC∆ = AUChypothetical − AUCexperimental). […] Only combinations with R^2 > 0.8 in both conditions were considered in the synergy analysis.

The test system of a further assay is Colo-357 cells. In words: Drug combination viability screen (ATPlite, 72 h). It counts as cell-based, human. The settings on record: Bliss model. As for the experimental part: as §1, §2
(In general: Cellular ATP, detected with luciferase, serves as a proxy for viable cell number.)

In a further assay the test system is Capan-1 cells. Description: Drug combination viability screen (ATPlite, 72 h). It counts as cell-based, human. The settings on record: Bliss model. As for the experimental part:
as §1, §2

In the next assay the test system is Dan-G cells. Description: Drug combination viability screen (ATPlite, 72 h). The format is cell-based, human. The settings on record: Bliss model. On the procedure: as §1, §2
In assay [1] the test system is HPDE (immortalized pancreatic duct cell line). Description: Drug combination viability screen (ATPlite, 72 h). It counts as cell-based, human. As to conditions: combination with GEM. As for the experimental part:
as §1, §2

In a further assay the test system is AsPC-1. In words: cells. Set-up: Viability of PDAC cell lines, ATPlite luminescence, 11-dose single-agent curve fit. As to conditions: Homo sapiens, ASPC1, 72 h, read-out: EC50 [nM]. The method in brief:
(§3)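 cells (1000 to 5000 per well) seeded 24 h before drug addition in a screen at 0.2% final DMSO. Controls were drug-free wells (negative) and 5 µM staurosporine (positive).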

In another assay the test system is BxPC-3. In words: cells. Also on record: Viability of PDAC cell lines, ATPlite luminescence, 11-dose single-agent curve fit. As to conditions: Homo sapiens, BXPC-3, 72 h, read-out: EC50 [nM]. The method in brief:
as §3

The subject of the next assay is Capan-1. Description: cells. Also on record: Viability of PDAC cell lines, ATPlite luminescence, 11-dose single-agent curve fit. As to conditions: Homo sapiens, CAPAN-1, 72 h, read-out: EC50 [nM]. Summed up: as §3
Another assay has as its system Colo-357. In words: cells. Set-up: Viability of PDAC cell lines, ATPlite luminescence, 11-dose single-agent curve fit. As to conditions: Homo sapiens, COLO357, 72 h, read-out: EC50 [nM]. The method in brief: as §3
Another assay has as its system Dan-G. In words: cells. Set-up: Viability of PDAC cell lines, ATPlite luminescence, 11-dose single-agent curve fit. As to conditions: 72 h, read-out: EC50 [nM]. Summed up:
as §3

The next assay relates to FAMPAC. Description: cells. Set-up: Viability of PDAC cell lines, ATPlite luminescence, 11-dose single-agent curve fit. The settings on record: 72 h, read-out: EC50 [nM]. The method in brief:
as §3

The subject of the next assay is HPDE. In words: cells. Set-up: Viability of PDAC cell lines, ATPlite luminescence, 11-dose single-agent curve fit. The settings on record: HPDE, 72 h, read-out: EC50 [nM]. The method in brief:
as §3

The next assay deals with HuP-T4. Description: cells. Set-up: Viability of PDAC cell lines, ATPlite luminescence, 11-dose single-agent curve fit. As to conditions: Homo sapiens, HuP-T4, 72 h, read-out: EC50 [nM]. Summed up: as §3
A further assay concerns MiaPaCa-2. In words: cells. Also on record: Viability of PDAC cell lines, ATPlite luminescence, 11-dose single-agent curve fit. As to conditions: Homo sapiens, MIA PaCa-2, 72 h, read-out: EC50 [nM]. The method in brief:
as §3

The subject of a further assay is PANC-1. In words: cells. Set-up: Viability of PDAC cell lines, ATPlite luminescence, 11-dose single-agent curve fit. The settings on record: Homo sapiens, PANC-1, 72 h, read-out: EC50 [nM]. The method in brief:
as §3

The next assay concerns PSN-1. In words: cells. Set-up: Viability of PDAC cell lines, ATPlite luminescence, 11-dose single-agent curve fit. The settings on record: Homo sapiens, PSN1, 72 h, read-out: EC50 [nM]. The method in brief: as §3
Another assay has as its system PaTu-8988-T. In words: cells. Also on record: Viability of PDAC cell lines, ATPlite luminescence, 11-dose single-agent curve fit. As to conditions: Homo sapiens, PaTu 8988t, 72 h, read-out: EC50 [nM]. Summed up: as §3
The next assay concerns Suit2-07. Description: cells. Also on record: Viability of PDAC cell lines, ATPlite luminescence, 11-dose single-agent curve fit. As to conditions: 72 h, read-out: EC50 [nM]. The method in brief: as §3
A further assay concerns 30 PDAC cell lines. As to conditions: ref Jaaks et al, 2022; cited from earlier work.
Another assay has as its system WEE1. The settings on record: WEE1, 4 cell line mix lysate, Kinobeads y, ref Klaeger et al. (2017); cited from earlier work.
Another assay deals with ADK. The settings on record: 4 cell line mix lysate, Kinobeads y, ref Klaeger et al. (2017), cited from earlier work.
Another assay relates to MAP3K4. As to conditions: MAP3K4, 4 cell line mix lysate, Kinobeads y, ref Klaeger et al. (2017), cited from earlier work.
The subject of a further assay is EPHB6. Set-up: method as in Klaeger et al. (2017). As to conditions: EPHB6, 4 cell line mix lysate, Kinobeads y, ref Klaeger et al. (2017), cited from earlier work.
The next assay addresses CSNK2B. As to conditions: 4 cell line mix lysate, Kinobeads y, ref Klaeger et al. (2017), cited from earlier work.
A further assay relates to CSNK2A2. The settings on record: CSNK2A2, 4 cell line mix lysate, Kinobeads y, ref Klaeger et al. (2017), cited from earlier work.
The target in a further assay is GAK. As to conditions: 4 cell line mix lysate, Kinobeads y, ref Klaeger et al. (2017), cited from earlier work.
A further assay deals with EIF3J. The settings on record: 4 cell line mix lysate, Kinobeads y, ref Klaeger et al. (2017), cited from earlier work.
A further assay has as its system CSNK2A1;CSNK2A3. As to conditions: CSNK2A1;CSNK2A3, 4 cell line mix lysate, Kinobeads y, ref Klaeger et al. (2017), cited from earlier work.
Another assay has as its system INPPL1. Also on record: method as in Klaeger et al. (2017). As to conditions: INPPL1, 4 cell line mix lysate, Kinobeads y, ref Klaeger et al. (2017), cited from earlier work.
The subject of a further assay is NEK3. Set-up: method as in Klaeger et al. (2017). As to conditions: NEK3, 4 cell line mix lysate, Kinobeads y, ref Klaeger et al. (2017), cited from earlier work.
Another assay has as its system AZI2. The settings on record: AZI2, 4 cell line mix lysate, Kinobeads y, ref Klaeger et al. (2017), cited from earlier work.
The test system of a further assay is TBK1. The settings on record: TBK1, 4 cell line mix lysate, Kinobeads y, ref Klaeger et al. (2017); cited from earlier work.
A further assay relates to GRB2. Also on record: method as in Klaeger et al. (2017). As to conditions: GRB2, 4 cell line mix lysate, Kinobeads y, ref Klaeger et al. (2017), cited from earlier work.
In another assay the test system is TBKBP1. As to conditions: TBKBP1, 4 cell line mix lysate, Kinobeads y, ref Klaeger et al. (2017), cited from earlier work.
The next assay addresses TANK. The settings on record: 4 cell line mix lysate, Kinobeads y, ref Klaeger et al. (2017), cited from earlier work.
The test system of a further assay is ADCK1. Set-up: method as in Klaeger et al. (2017). The settings on record: ADCK1, 4 cell line mix lysate, Kinobeads y, ref Klaeger et al. (2017), cited from earlier work.
A further assay concerns the target BCR. As to conditions: 4 cell line mix lysate, Kinobeads y, ref Klaeger et al. (2017), cited from earlier work.
The next assay deals with IKBKE. As to conditions: 4 cell line mix lysate, Kinobeads y, ref Klaeger et al. (2017); cited from earlier work.
A further assay concerns ABL1. As to conditions: ABL1, 4 cell line mix lysate, Kinobeads y, ref Klaeger et al. (2017); cited from earlier work.

The term EC50 denotes the concentration giving half of the maximal effect. Consider `CO[C@H]1C[C@@H]2CC[C@@H](C)[C@@](O)(O2)C(=O)C(=O)N2CCCC[C@H]2C(=O)O[C@H]([C@H](C)C[C@@H]2CC[C@@H](OP(C)(C)=O)[C@H](OC)C2)CC(=O)[C@H](C)/C=C(\C)[C@@H](O)[C@@H](OC)C(=O)[C@H](C)C[C@H](C)/C=C/C=C/C=C/1C` [Ridaforolimus], for which the “median AUC across all cell lines” value in the assay with 13 PDAC cell lines is greater than 80%. In addition, the “synergy with GEM” value in the assay on Colo-357 cells, with Capan-1 cells and in the assay with Dan-G cells was “synergized” each time. Also, the “sensitization of HPDE cells to GEM” value in assay [1] is listed as “strongly sensitized”. Also, the half-maximal effective concentration (EC50) was determined as 0.22 nM in the assay on AsPC-1; 0.13 nM with BxPC-3; 31.4 nM in the assay with Capan-1; 127 nM in the assay with Colo-357; 87.2 nM in the assay on Dan-G; 0.13 nM in the assay with FAMPAC. Besides, the half-maximal effective concentration (EC50) in the assay on HPDE was 0.56 nM; in the assay with HuP-T4 it was 15.9 nM; with MiaPaCa-2, 3.25 nM; with PANC-1, 4.17 nM; in the assay with PSN-1, 0.26 nM; with PaTu-8988-T, 0.04 nM. Moreover, the EC50 in the assay with Suit2-07 was 118 nM.
`NC(=O)Nc1cc(-c2cccc(F)c2)sc1C(=O)N[C@H]1CCCNC1` [AZD7762]: the “synergy with GEM” value in the assay on 30 PDAC cell lines is “nearly half of the cell lines”.
As to `C=CCn1c(=O)c2cnc(Nc3ccc(N4CCN(C)CC4)cc3)nc2n1-c1cccc(C(C)(C)O)n1` [Adavosertib (MK-1775)], the concentration giving a half-maximal response (EC50) was […] in the assay with WEE1; 12.6 nM with ADK; 77.5 nM in the assay with MAP3K4; 549 nM in the assay on EPHB6; 387 nM in the assay on CSNK2B; 428 nM with CSNK2A2. Further, the EC50 in the assay on GAK is 745 nM; in the assay on EIF3J, 500 nM; in the assay with CSNK2A1;CSNK2A3 it was 627 nM; with INPPL1 it was 1470 nM; in the assay on NEK3, 980 nM; in the assay with AZI2 it was 1750 nM. Moreover, the EC50 in the assay on TBK1 is […]; in the assay on GRB2 it was 2710 nM; in the assay with TBKBP1, 2180 nM; in the assay on TANK it was 2870 nM; in the assay on ADCK1, 3.05 µM; in the assay with BCR, 3.99 µM. Further, the EC50 in the assay with IKBKE was […]; in the assay with ABL1 it was 6.34 µM. For the same molecule, the Kd on ADK (read-out: KDapp) is 12.6 nM; on MAP3K4 (read-out: KDapp), 52 nM; on EPHB6 (read-out: KDapp) it was 337 nM; at CSNK2B (read-out: KDapp) it was 387 nM; at CSNK2A2 (read-out: KDapp), 412 nM; at GAK (read-out: KDapp), 418 nM. In addition, the Kd at EIF3J (read-out: KDapp) was 500 nM; on CSNK2A1;CSNK2A3 (read-out: KDapp), 627 nM; at INPPL1 (read-out: KDapp), 712 nM; on NEK3 (read-out: KDapp) it was 837 nM; at AZI2 (read-out: KDapp), 1230 nM; on GRB2 (read-out: KDapp), 1690 nM. The Kd on TBKBP1 (read-out: KDapp) was 1730 nM; on TANK (read-out: KDapp), 1820 nM; at ADCK1 (read-out: KDapp), 1900 nM; at BCR (read-out: KDapp), 1910 nM. The pKDapp on ADK was 7.90; on MAP3K4, 7.28; at EPHB6, 6.47; at CSNK2B it was 6.41; on CSNK2A2 it was 6.38; at GAK it was 6.38. In addition, the pKDapp at EIF3J is on record as 6.30; at CSNK2A1;CSNK2A3, 6.20; at INPPL1, 6.15; at NEK3, 6.08; at AZI2, 5.91; on GRB2, 5.77. The pKDapp on TBKBP1 is 5.76; at TANK it was 5.74; on ADCK1, 5.72; at BCR, 5.72.
